Values after ≈ are worked out from the molar mass of the structure shown. Read-outs that look alike come from different tables or passages of the source.
Legend:
[1] = Solution stability assay (pH 1.0 and pH 7.4, 37° C.); type: physicochemical
Procedure: Acetonitrile Stock Solution: Prepare an Acetonitrile Stock Solution of the prodrug by dissolving 1.5-2.0 mg of accurately weighted compound in 5.0 mL of acetonitrile in 5 mL volumetric flask.
(§1) pH 7.4 Buffer Working Solution: Prepare a pH 7.4 Buffer working Solution of drug by adding 1.5 mL of the Acetonitrile Stock Solution to 3.5 mL of stability buffer in a 20 mL scintillation vial, mix very well. Using a 3 mL syringe withdraw ˜3 mL of solution and filter using the Gelman 0.45 μm syringe filter into a clean 1.5 mL LC vial. This filtered solution will be used to evaluate the prodrug degradation throughout the course of the study. Target concentration: 90-120 μg/mL (70% Aqueous: 30% Acetonitrile)
as §1, with “1.0 Acidic” for “7.4 Buffer”, “pH1.0 Working” for “pH 7.4 Buffer working”
Following the sample preparation procedure described above a single sample (n=1) is prepared for each pH condition. The samples were then placed in an HPLC autosampler maintained at 37° C. and samples were analyzed over a 24 hr period. Prodrug remaining (%) is reported relative to the initial peak area (t=0 h). In cases where a conversion to parent half-life could be calculated, a t1/2 was generated. Confirmation of the conversion to parent from the prodrug was obtained by LCMS and HPLC analysis of the final timepoint samples.
Typical LC parameters are shown below:
• HPLC System: HP1100 Series, Hewlett Packard., Heated autosampler • Analytical column. Synergi 4u Hydro C18, 4.6 mm×5.0 cm, Phenomenex • Column temperature: 40° C. • Autosampler temp: 37° C. • Flow rate: 1.0 mL/min • Injection Volume: 10 μL • Mobile Phase: A: Acetonitrile • B: 0.1% Phosphoric acid in water • Run Time: 14.0 minutes • Typical LCMS parameters are shown below: • LC-MS System: Surveyor HPLC system, ThermoFinnigan LCQ Deca XP Max (Ion trap) • Analytical column. Synergi 4u Hydro C18, 4.6 mm×5.0 cm, Phenomenex • Column temperature: 40° C. • Autosampler temp: 22° C. • Flow rate: 1.0 mL/min • Injection Volume: 5 […] • Mobile Phase: A: 95% Acetonitrile/5% 20 mM Ammonium Acetate • B: 5% Acetonitrile/95% 20 mM Ammonium Acetate • LCQ Parameters • Sheath Flow Rate: 81.64 • Aux/Sweep Flow Rate: 19.01 • Current (uA): 10.89 • Voltage (kV): 5.00 • Capillary©: 348.10 • Capillary Voltage (V): 30.44

[2] = Thermodynamic equilibrium aqueous solubility assay; type: physicochemical; settings: thermodynamic from solid; for solubility thermodynamic: aqueous solvent, read-out: Aq. sol., mg/mL (pH)
Procedure: Thermodynamic Equilibrium Aqueous Solubility Assay
The calibration standard is prepared by accurately weighing 0.5-0.7 mg of sample in 5 ml of methanol. If the material is not fully soluble in methanol, other solvents such as DMSO or mixed solvents will be used.
*The calibration standard is typically prepared fresh immediately before the start of the assay. A two-point calibration curve should be used to determine the concentration of the final solution. A serial dilution is performed on the standard solution.
The final saturated solution is prepared by adding 1.0 ml of the appropriate aqueous solvent to the remaining portion of material (˜1 mg/l ml) into a 1 dram vial. The solution is sonicated and vortexed for ˜30 seconds. The sample solution is placed on an orbiter that continually agitates the sample solutions for 15-24 hours at room temperature. The final saturated solution is then transferred to a 1.5 ml Eppendorf tube and centrifuged for ˜2 min. at 10000 rpms. The supernatant from the saturated solution is transferred to a glass HPLC vial without filtering since the 1.5 mL volume is insufficient to saturate a syringe filter. This sample preparation procedure nullifies the effects of non-specific binding to the filtering apparatus.
The standards and sample are analyzed by HPLC using either UV/Vis diode array or variable wavelength detection. Typical quantitation wavelengths are 210 or 254 nm; detection wavelength can be individually customized to optimize sensitivity. In addition to UV detection, mass spectrometry detection is recommended if available in order to confirm the identity of the HPLC-UV peak of interest.
Dilutions of aqueous test solutions are performed if HPLC-UV peak is beyond the linear portion of the standard calibration curve. Typical dilutions include 100 ul/900 ul (×10) or 500 ul/500 ul (2×), as required.
HPLC grade solvents are employed.

[3] = pH 1, conversion of the prodrug to compound 1, 37° C., read-out: Aq. Stability half-life (pH 1/7.4) Hrs (converted)
[4] = pH 7.4, conversion of the prodrug to compound 1, 37° C., read-out: Aq. Stability half-life (pH 1/7.4) Hrs (converted)

Row | Structure (SMILES) | half-life ([1]; pH 1, parent compound, read-out: chemical stability half-life (converted)) | half-life ([1]; pH 7.4, parent compound, read-out: chemical stability half-life (converted)) | solubility ([2]; aqueous buffer, pH 6.6 buffer) | half-life [1, 3] | half-life [1, 4] | solubility thermodynamic ([2]; pH 6.5, aqueous buffer) | solubility thermodynamic ([2]; pH 7.4, aqueous buffer)
1 | CC(C)[C@@H](NC(=O)NCC(C)(C)O)C(=O)N1CC[C@](O)(c2ccc(Cl)cc2)C(C)(C)C1 [Compound 1, 1-((R)-1-((S)-4-(4-chlorophenyl)-4-hydroxy-3,3-dimethylpiperidin-1-yl)-3-methyl-1-oxobutan-2-yl)-3-(2-hydroxy-2-methylpropyl)urea] | 30 h | > 22 h | 47 µg/mL (≈ 104 µM) |  |  |  | 
2 | CC(C)[C@@H](NC(=O)NCC(C)(C)OC(=O)CN)C(=O)N1CC[C@](O)(c2ccc(Cl)cc2)C(C)(C)C1 [Example 1, 1-(3-((R)-1-((S)-4-(4-chlorophenyl)-4-hydroxy-3,3-dimethylpiperidin-1-yl)-3-methyl-1-oxobutan-2-yl)ureido)-2-methylpropan-2-yl 2-aminoacetate] |  |  |  | 159 h | 86 h | 1.1 mg/mL (≈ 2150 µM) | 
3 | CC(C)[C@H](N)C(=O)OC(C)(C)CNC(=O)N[C@@H](C(=O)N1CC[C@](O)(c2ccc(Cl)cc2)C(C)(C)C1)C(C)C [Example 3, (S)-1-(3-((R)-1-((S)-4-(4-chlorophenyl)-4-hydroxy-3,3-dimethylpiperidin-1-yl)-3-methyl-1-oxobutan-2-yl)ureido)-2-methylpropan-2-yl 2-amino-3-methylbutanoate] |  |  |  | 237 h | > 22 h | > 0.6 mg/mL | 
4 | CC(C)[C@@H](NC(=O)NCC(C)(C)OC(=O)OCCN1CCOCC1)C(=O)N1CC[C@](O)(c2ccc(Cl)cc2)C(C)(C)C1 [Example 7, 1-(3-((R)-1-((S)-4-(4-chlorophenyl)-4-hydroxy-3,3-dimethylpiperidin-1-yl)-3-methyl-1-oxobutan-2-yl)ureido)-2-methylpropan-2-yl 2-morpholinoethyl carbonate] |  |  |  | 85 h | 131 h | 0.34 mg/mL (≈ 556 µM) | 
5 | CC(C)[C@@H](NC(=O)NCC(C)(C)OC(=O)OCOC(=O)Cc1ccc(OP(=O)(O)O)cc1)C(=O)N1CC[C@](O)(c2ccc(Cl)cc2)C(C)(C)C1 [Example 9] |  |  |  | 25 h | 72 h | 1.6 mg/mL (≈ 2160 µM) | 
6 | CC(C)[C@@H](NC(=O)NCC(C)(C)OCOP(=O)(O)O)C(=O)N1CC[C@](O)(c2ccc(Cl)cc2)C(C)(C)C1 [Example 10] |  |  |  | < 1 h |  |  | 
7 | CCOC(=O)CCC(=O)OC(C)(C)CNC(=O)N[C@@H](C(=O)N1CC[C@](O)(c2ccc(Cl)cc2)C(C)(C)C1)C(C)C [Example 17] |  |  |  | > 22 h | > 22 h |  | < 0.007 mg/mL
8 | COC(=O)CCC(=O)OC(C)(C)CNC(=O)N[C@@H](C(=O)N1CC[C@](O)(c2ccc(Cl)cc2)C(C)(C)C1)C(C)C [Example 18] |  |  |  | > 22 h | > 22 h |  | 0.059 mg/mL (≈ 104 µM)
9 | CC(C)[C@@H](NC(=O)NCC(C)(C)OC(=O)CCC(=O)O)C(=O)N1CC[C@](O)(c2ccc(Cl)cc2)C(C)(C)C1 [Example 19] |  |  |  | > 22 h | > 22 h | 0.08 mg/mL (≈ 144 µM) | 
10 | CC(C)[C@@H](NC(=O)NCC(C)(C)OC(=O)CCCC(=O)O)C(=O)N1CC[C@](O)(c2ccc(Cl)cc2)C(C)(C)C1 [Example 20] |  |  |  | > 22 h | > 22 h | 0.317 mg/mL (≈ 558 µM) | 
11 | CC(C)[C@@H](NC(=O)NCC(C)(C)OC(=O)CS(=O)(=O)O)C(=O)N1CC[C@](O)(c2ccc(Cl)cc2)C(C)(C)C1 [Example 21] |  |  |  | > 22 h | > 22 h |  | > 16 mg/mL
12 | CC(C)[C@@H](NC(=O)NCC(C)(C)OC(=O)CCS(=O)(=O)O)C(=O)N1CC[C@](O)(c2ccc(Cl)cc2)C(C)(C)C1 [Example 22] |  |  |  | 44 h | > 22 h | > 7 mg/mL | 
13 | CC(C)[C@@H](NC(=O)NCC(C)(C)OC(=O)Cc1ccc(OP(=O)(O)O)cc1)C(=O)N1CC[C@](O)(c2ccc(Cl)cc2)C(C)(C)C1 [Example 24] |  |  |  | 77 h | > 22 h | 1.1 mg/mL (≈ 1650 µM) | 

The next lines start with the values.

Row | half-life ([1]; pH 1, parent compound, read-out: chemical stability half-life (converted)) | half-life ([1]; pH 7.4, parent compound, read-out: chemical stability half-life (converted)) | solubility ([2]; aqueous buffer, pH 6.6 buffer) | half-life [1, 3] | half-life [1, 4] | solubility thermodynamic ([2]; pH 6.5, aqueous buffer) | solubility thermodynamic ([2]; pH 7.4, aqueous buffer) | Structure (SMILES)
14 |  |  |  | 29 h | > 22 h | 0.03 mg/mL |  | CC(=O)OC(C)(C)CNC(=O)N[C@@H](C(=O)N1CC[C@](O)(c2ccc(Cl)cc2)C(C)(C)C1)C(C)C [Example 4, 1-(3-((R)-1-((S)-4-(4-chlorophenyl)-4-hydroxy-3,3-dimethylpiperidin-1-yl)-3-methyl-1-oxobutan-2-yl)ureido)-2-methylpropan-2-yl acetate]
15 |  |  |  | 25 h | > 22 h | 0.04 mg/mL (≈ 78.4 µM) |  | CCC(=O)OC(C)(C)CNC(=O)N[C@@H](C(=O)N1CC[C@](O)(c2ccc(Cl)cc2)C(C)(C)C1)C(C)C [Example 5, 1-(3-((R)-1-((S)-4-(4-chlorophenyl)-4-hydroxy-3,3-dimethylpiperidin-1-yl)-3-methyl-1-oxobutan-2-yl)ureido)-2-methylpropan-2-yl propionate]
16 |  |  |  | 61 h | 49 h | 2.2 mg/mL (≈ 3510 µM) |  | CC(C)[C@@H](NC(=O)NCC(C)(C)OC(=O)OCOC(=O)/C=C/C(=O)O)C(=O)N1CC[C@](O)(c2ccc(Cl)cc2)C(C)(C)C1 [Example 6, (R,E)-3-((S)-4-(4-chlorophenyl)-4-hydroxy-3,3-dimethylpiperidine-1-carbonyl)-2,8,8-trimethyl-5,10,14-trioxo-9,11,13-trioxa-4,6-diazaheptadec-15-en-17-oic acid]
17 |  |  |  | 107 h | 0.3 h |  |  | CC(C)[C@@H](NC(=O)NCC(C)(C)OC(=O)OCOP(=O)(O)O)C(=O)N1CC[C@](O)(c2ccc(Cl)cc2)C(C)(C)C1 [Example 11]
18 |  |  |  | 82 h | 0.3 h |  |  | CC(C)[C@@H](N)C(=O)OCOC(=O)OC(C)(C)CNC(=O)N[C@@H](C(=O)N1CC[C@](O)(c2ccc(Cl)cc2)C(C)(C)C1)C(C)C [Example 12]
19 |  |  |  | 10.1 h | 0.25 h |  |  | CC(C)[C@@H](NC(=O)NCC(C)(C)OC(=O)OCOC(=O)C(C)(C)N)C(=O)N1CC[C@](O)(c2ccc(Cl)cc2)C(C)(C)C1 [Example 13]
20 |  |  |  | 49 h | 107 h |  | 0.18 mg/mL (≈ 295 µM) | CC(C)[C@@H](NC(=O)NCC(C)(C)OC(=O)OCOC(=O)C1(N)CC1)C(=O)N1CC[C@](O)(c2ccc(Cl)cc2)C(C)(C)C1 [Example 14]
21 |  |  |  | > 22 h | > 22 h |  | 0.022 mg/mL (≈ 38.6 µM) | CC(=O)OCOC(=O)OC(C)(C)CNC(=O)N[C@@H](C(=O)N1CC[C@](O)(c2ccc(Cl)cc2)C(C)(C)C1)C(C)C [Example 15]
22 |  |  |  | 25 h | 23 h | > 0.3 mg/mL |  | CC(C)[C@@H](NC(=O)NCC(C)(C)OC(=O)OCS(=O)(=O)O)C(=O)N1CC[C@](O)(c2ccc(Cl)cc2)C(C)(C)C1 [Example 23]

— US8410139B2, “Prodrugs of a piperidinyl derivative as modulators of chemokine receptor activity” (Bristol-Myers Squibb Company, priority 2009, dated 2013)
